The results in this text go back to patent US8574563B2 (Bristol-Myers Squibb Company, priority 2006, dated 2013).

The structures appear in SMILES notation. Like-named read-outs stand apart in the source and are kept apart here.

The experiment has as its system HCV 1b-377-neo replicon cells. The experiment in a line: HCV replicon assay, HCV 1b-377-neo replicon cells (1b FRET). In kind it is cell-based, Hepatitis C virus genotype 1b. To be noted: HCV 1b-377-neo replicon cells, HCV 1b genotype, read-out: EC50 range against HCV 1b (Table 2, Range). The procedure, abridged: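 Compounds tested in HCV genotype 1b-377-neo replicon cells with a FRET read-out. Cells resistant to a reference NS5A inhibitor through a Y2065H NS5A mutation were run alongside wild-type cells.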

As for `COC(=O)N[C@@H](C(=O)N1CC(F)(F)C[C@H]1c1nc(-c2ccc(-c3ccc(-c4cnc([C@@H]5CC(F)(F)CN5C(=O)[C@H](NC(=O)OC)c5ccccc5)[nH]4)cc3)cc2)c[nH]1)c1ccccc1` [Example 24-9, dimethyl (4,4′-biphenyldiylbis(1H-imidazole-4,2-diyl((2S)-4,4-difluoro-2,1-pyrrolidinediyl)((1R)-2-oxo-1-phenyl-2,1-ethanediyl)))biscarbamate], the EC50 (Hepatitis C virus) was in the range of 0.001 to 0.999 nM. Turning to `O=C([C@@H](c1ccccc1)N1CCCCC1)N1CC(F)(F)C[C@H]1c1nc(-c2ccc(-c3ccc(-c4cnc([C@@H]5CCCN5C(=O)[C@@H](c5ccccc5)N5CCCCC5)[nH]4)cc3)cc2)c[nH]1` [Example 24-10, 1-((R)-2-((2S)-2-(4-(4′-(2-((2S)-4,4-difluoro-1-((2R)-2-phenyl-2-(1-piperidinyl)acetyl)-2-pyrrolidinyl)-1H-imidazol-4-yl)-4-biphenylyl)-1H-imidazol-2-yl)-1-pyrrolidinyl)-2-oxo-1-phenylethyl)piperidine], where the note is “Hepatitis C virus”, the EC50 is 0.001 to 0.999 nM. For the molecule `COC(=O)N[C@@H](C(=O)N1C[C@H](O)C[C@H]1c1nc(-c2ccc(-c3ccc(-c4c[nH]c([C@@H]5C[C@@H](O)CN5C(=O)[C@H](NC(=O)OC)c5ccccc5)n4)cc3)cc2)c[nH]1)c1ccccc1` [Example 24-11, dimethyl (4,4′-biphenyldiylbis(1H-imidazole-5,2-diyl((2S,4R)-4-hydroxy-2,1-pyrrolidinediyl)((1R)-2-oxo-1-phenyl-2,1-ethanediyl)))biscarbamate], the EC50 (Hepatitis C virus) lay in the range of 1 to 99 nM.

For `O=C([C@H](O)c1ccccc1)N1C[C@H](O)C[C@H]1c1ncc(-c2ccc(-c3ccc(-c4cnc([C@@H]5C[C@@H](O)CN5C(=O)[C@H](O)c5ccccc5)[nH]4)cc3)cc2)[nH]1` [Example 24-12, (3R,5S,3′R,5′S)-5,5′-(4,4′-biphenyldiylbis(1H-imidazole-5,2-diyl))bis(1-((2R)-2-hydroxy-2-phenylacetyl)-3-pyrrolidinol)], for the setting “Hepatitis C virus”, the EC50 lay in the range of 1 to 99 nM. The same measure, in the same setting: in the case of `CNC(=O)N[C@@H](C(=O)N1C[C@H](O)C[C@H]1c1ncc(-c2ccc(-c3ccc(-c4cnc([C@@H]5C[C@@H](O)CN5C(=O)[C@H](NC(=O)NC)c5ccccc5)[nH]4)cc3)cc2)[nH]1)c1ccccc1` [Example 24-13, N,N″-(4,4′-biphenyldiylbis(1H-imidazole-5,2-diyl((2S,4R)-4-hydroxy-2,1-pyrrolidinediyl)((1R)-2-oxo-1-phenyl-2,1-ethanediyl)))bis(3-methylurea)] it was 100 to 999 nM. On the same count and under the same terms, in the case of `CCNC(=O)N[C@@H](C(=O)N1C[C@H](O)C[C@H]1c1ncc(-c2ccc(-c3ccc(-c4cnc([C@@H]5C[C@@H](O)CN5C(=O)[C@H](NC(=O)NCC)c5ccccc5)[nH]4)cc3)cc2)[nH]1)c1ccccc1` [Example 24-14, N′,N′′′-(4,4′-biphenyldiylbis(1H-imidazole-5,2-diyl((2S,4R)-4-hydroxy-2,1-pyrrolidinediyl)((1R)-2-oxo-1-phenyl-2,1-ethanediyl)))bis(1-ethylurea)] it was 1 to 99 nM.

For the molecule `O=C(NC1CCCC1)N[C@@H](C(=O)N1C[C@H](O)C[C@H]1c1ncc(-c2ccc(-c3ccc(-c4cnc([C@@H]5C[C@@H](O)CN5C(=O)[C@H](NC(=O)NC5CCCC5)c5ccccc5)[nH]4)cc3)cc2)[nH]1)c1ccccc1` [Example 24-15, N′,N′′′-(4,4′-biphenyldiylbis(1H-imidazole-5,2-diyl((2S,4R)-4-hydroxy-2,1-pyrrolidinediyl)((1R)-2-oxo-1-phenyl-2,1-ethanediyl)))bis(1-cyclopentylurea)], the EC50 (Hepatitis C virus) was 1 to 99 nM. As for `CN(C)[C@@H](C(=O)N1C[C@@H](O)C[C@H]1c1ncc(-c2ccc(-c3ccc(-c4cnc([C@@H]5C[C@H](O)CN5C(=O)[C@@H](c5ccccc5)N(C)C)[nH]4)cc3)cc2)[nH]1)c1ccccc1` [Example 24-16, (3S,5S,3′S,5′S)-5,5′-(4,4′-biphenyldiylbis(1H-imidazole-5,2-diyl))bis(1-((2R)-2-(dimethylamino)-2-phenylacetyl)-3-pyrrolidinol)], the 50% effective concentration (EC50) (Hepatitis C virus) lay in the range of 0.001 to 0.999 nM. As for `COC(=O)N[C@@H](C(=O)N1C[C@@H](O)C[C@H]1c1ncc(-c2ccc(-c3ccc(-c4cnc([C@@H]5C[C@H](O)CN5C(=O)[C@H](NC(=O)OC)c5ccccc5)[nH]4)cc3)cc2)[nH]1)c1ccccc1` [Example 24-17, dimethyl (4,4′-biphenyldiylbis(1H-imidazole-5,2-diyl((2S,4S)-4-hydroxy-2,1-pyrrolidinediyl)((1R)-2-oxo-1-phenyl-2,1-ethanediyl)))biscarbamate], the EC50 (Hepatitis C virus) is 0.001 to 0.999 nM. As for `O=C([C@H](O)c1ccccc1)N1C[C@@H](O)C[C@H]1c1ncc(-c2ccc(-c3ccc(-c4cnc([C@@H]5C[C@H](O)CN5C(=O)[C@H](O)c5ccccc5)[nH]4)cc3)cc2)[nH]1` [Example 24-18, (3S,5S,3′S,5′S)-5,5′-(4,4′-biphenyldiylbis(1H-imidazole-5,2-diyl))bis(1-((2R)-2-hydroxy-2-phenylacetyl)-3-pyrrolidinol)], the EC50 (Hepatitis C virus) lay within 0.001 to 0.999 nM. With `COC(=O)N[C@@H](C(=O)N(C)[C@@H](C)c1ncc(-c2ccc(-c3ccc(-c4cnc([C@H](C)N(C)C(=O)[C@H](NC(=O)OC)c5ccccc5)[nH]4)cc3)cc2)[nH]1)c1ccccc1` [Example 24-18-1, dimethyl (4,4′-biphenyldiylbis(1H-imidazole-5,2-diyl(1S)-1,1-ethanediyl(methylimino)((1R)-2-oxo-1-phenyl-2,1-ethanediyl)))biscarbamate], the EC50 (Hepatitis C virus) was 0.001 to 0.999 nM. Regarding `C[C@@H](c1ncc(-c2ccc(-c3ccc(-c4cnc([C@H](C)N(C)C(=O)[C@@H](c5ccccc5)N(C)C)[nH]4)cc3)cc2)[nH]1)N(C)C(=O)[C@@H](c1ccccc1)N(C)C` [Example 24-18-2, (2R,2′R)-N,N′-(4,4′-biphenyldiylbis(1H-imidazole-5,2-diyl(1S)-1,1-ethanediyl))bis(2-(dimethylamino)N-methyl-2-phenylacetamide)], the EC50 (Hepatitis C virus) fell in the range of 0.001 to 0.999 nM.

Turning to `C[C@@H](c1ncc(-c2ccc(-c3ccc(-c4cnc([C@H](C)N(C)C(=O)[C@@H](c5ccccc5)N5CCCCC5)[nH]4)cc3)cc2)[nH]1)N(C)C(=O)[C@@H](c1ccccc1)N1CCCCC1` [Example 24-18-3, (2R,2′R)-N,N′-(4,4′-biphenyldiylbis(1H-imidazole-5,2-diyl(1S)-1,1-ethanediyl))bis(N-methyl-2-phenyl-2-(1-piperidinyl)acetamide)], the EC50 (Hepatitis C virus) lay within 0.001 to 0.999 nM.

For the molecule `COC(=O)N[C@@H](C(=O)N(C)[C@@H](C)c1ncc(-c2ccc(-c3ccc(-c4cnc([C@@H]5CCCN5C(=O)[C@H](NC(=O)OC)c5ccccc5)[nH]4)cc3)cc2)[nH]1)c1ccccc1` [Example 24-18-4, methyl ((1R)-2-((2S)-2-(5-(4′-(2-((1S)-1-(((2R)-2-((methoxycarbonyl)amino)-2-phenylacetyl)(methyl)amino)ethyl)-1H-imidazol-5-yl)-4-biphenylyl)-1H-imidazol-2-yl)-1-pyrrolidinyl)-2-oxo-1-phenylethyl)carbamate], the EC50 (Hepatitis C virus) was 0.001 to 0.999 nM. In the case of `C[C@@H](c1ncc(-c2ccc(-c3ccc(-c4cnc([C@@H]5CCCN5C(=O)[C@@H](c5ccccc5)N(C)C)[nH]4)cc3)cc2)[nH]1)N(C)C(=O)[C@@H](c1ccccc1)N(C)C` [Example 24-18-5, (2R)-2-(dimethylamino)-N-((1S)-1-(5-(4′-(2-((2S)-1-((2R)-2-(dimethylamino)-2-phenylacetyl)-2-pyrrolidinyl)-1H-imidazol-5-yl)-4-biphenylyl)-1H-imidazol-2-yl)ethyl)-N-methyl-2-phenylacetamide], the EC50 (Hepatitis C virus) fell in the range of 0.001 to 0.999 nM. On the same count and under the same terms, in the case of `C[C@@H](c1ncc(-c2ccc(-c3ccc(-c4cnc([C@@H]5CCCN5C(=O)[C@@H](c5ccccc5)N5CCCCC5)[nH]4)cc3)cc2)[nH]1)N(C)C(=O)[C@@H](c1ccccc1)N1CCCCC1` [Example 24-18-6, (2R)-N-methyl-2-phenyl-N-((1S)-1-(5-(4′-(2-((2S)-1-((2R)-2-phenyl-2-(1-piperidinyl)acetyl)-2-pyrrolidinyl)-1H-imidazol-5-yl)-4-biphenylyl)-1H-imidazol-2-yl)ethyl)-2-(1-piperidinyl)acetamide] it was 0.001 to 0.999 nM. As for `COC(=O)N[C@H](C(=O)N1CCC[C@H]1c1ncc(-c2ccc(-c3ccc(-c4cnc([C@@H]5CCCN5C(=O)[C@@H](NC(=O)OC)C(C)C)[nH]4)cc3)cc2)[nH]1)C(C)C` [Example 24-23], under “Hepatitis C virus”, the 50% effective concentration (EC50) lay in the range of 0.001 to 0.999 nM. `CC(=O)N[C@@H](C(=O)N1CCC[C@H]1c1ncc(-c2ccc(-c3ccc(-c4cnc([C@@H]5CCCN5C(=O)[C@H](NC(C)=O)c5ccccc5)[nH]4)cc3)cc2)[nH]1)c1ccccc1` [Example 25, N,N′-(4,4′-biphenyldiylbis(1H-imidazole-5,2-diyl(2S)-2,1-pyrrolidinediyl((1R)-2-oxo-1-phenyl-2,1-ethanediyl)))diacetamide]: for the setting “Hepatitis C virus”, the EC50 is 0.001 to 0.999 nM.

`O=C(N[C@@H](C(=O)N1CCC[C@H]1c1ncc(-c2ccc(-c3ccc(-c4cnc([C@@H]5CCCN5C(=O)[C@H](NC(=O)[C@H]5CCCO5)c5ccccc5)[nH]4)cc3)cc2)[nH]1)c1ccccc1)[C@H]1CCCO1` [Example 25-1, (2R,2′R)-N,N′-(4,4′-biphenyldiylbis(1H-imidazole-5,2-diyl(2S)-2,1-pyrrolidinediyl((1R)-2-oxo-1-phenyl-2,1-ethanediyl)))ditetrahydro-2-furancarboxamide]: the EC50 lay in the range of 0.001 to 0.999 nM.

Regarding `Cn1cncc1C(=O)N[C@@H](C(=O)N1CCC[C@H]1c1ncc(-c2ccc(-c3ccc(-c4cnc([C@@H]5CCCN5C(=O)[C@H](NC(=O)c5cncn5C)c5ccccc5)[nH]4)cc3)cc2)[nH]1)c1ccccc1` [Example 25-2, N,N′-(4,4′-biphenyldiylbis(1H-imidazole-5,2-diyl(2S)-2,1-pyrrolidinediyl((1R)-2-oxo-1-phenyl-2,1-ethanediyl)))bis(1-methyl-1H-imidazole-5-carboxamide)], the EC50 (Hepatitis C virus) was 0.001 to 0.999 nM.

The term EC50 denotes the concentration at which the effect is half-maximal.
